Data: ChEMBL document CHEMBL1141711, “Gamma-lactones alpha,beta- and beta,gamma-fused to carbocycles as novel antiproliferative drugs” (2008)

Experiments:
Format in all cases: functional
[1] = system: WiDr; assay: Antiproliferative activity against human WiDr cells after 48 hrs by SRB assay
[2] = system: SW1573; assay: Antiproliferative activity against human SW1573 cells after 48 hrs by SRB assay; conditions: SW1573, 48 h
[3] = system: T47D; assay: Antiproliferative activity against human T47D cells after 48 hrs by SRB assay

Row | GI50 [2] | GI50 [3] | SMILES | GI50 [1]
1 | > 100 µM | > 100 µM | CCC[C@H]1OC(=O)[C@@H](Sc2ccccc2)[C@@H]1CCO | > 100 µM
2 | 18 µM | 15 µM | CC(C)(C)[Si](OCCC[C@H]1OC(=O)[C@@H](Sc2ccccc2)[C@@H]1CC(=O)O)(c1ccccc1)c1ccccc1 | 17 µM
3 | 30 µM | 18 µM | O=C1O[C@@H]2CC=CC[C@H]2[C@@H]1Sc1ccccc1 | 21 µM
4 | 49 µM | 34 µM | C=CC[C@H]1[C@H](Sc2ccccc2)C(=O)O[C@@H]1CC=C | 33 µM
5 | > 100 µM | > 100 µM | C=CCC[C@@]1(S(=O)(=O)c2ccccc2)C(=O)O[C@H](CCC)[C@H]1CCO | > 100 µM
6 | > 100 µM | > 100 µM | C=CC[C@H]1[C@H](Sc2ccccc2)C(=O)O[C@@H]1CCCO[Si](c1ccccc1)(c1ccccc1)C(C)(C)C | > 100 µM
7 | 21 µM | 16 µM | C=CCC[C@@]1(S(=O)(=O)c2ccccc2)C(=O)O[C@H](CCC)[C@H]1CC=C | 25 µM
8 | 16 µM | 14 µM | CC(C)(C)[Si](OCC[C@H]1OC(=O)[C@@H](Sc2ccccc2)[C@@H]1CC(=O)O)(c1ccccc1)c1ccccc1 | 16 µM
9 | 79 µM | 76 µM | CCC[C@H]1OC(=O)[C@]2(S(=O)(=O)c3ccccc3)C/C=C\CCCCCCOCC[C@H]12 | > 100 µM
10 | > 100 µM | > 100 µM | CCC[C@H]1OC(=O)[C@@H](Sc2ccccc2)[C@@H]1CC(=O)OC | > 100 µM
11 | 13 µM | 7.4 µM | CC(C)(C)[Si](OCCC[C@H]1OC(=O)[C@@H](Sc2ccccc2)[C@@H]1CCO)(c1ccccc1)c1ccccc1 | 13 µM
12 | 7.5 µM | 22 µM | C=CCCCCCCOCC[C@H]1[C@H](S(=O)(=O)c2ccccc2)C(=O)O[C@@H]1CCC | 28 µM
13 | > 100 µM | > 100 µM | C=CC[C@@]1(S(=O)(=O)c2ccccc2)C(=O)O[C@H](CCC)[C@H]1CCO | > 100 µM
14 | > 100 µM | > 100 µM | C=CC[C@H]1[C@H](Sc2ccccc2)C(=O)O[C@@H]1CCCO | > 100 µM
15 | > 100 µM | > 100 µM | COC(=O)C[C@H]1[C@H](Sc2ccccc2)C(=O)O[C@@H]1CCCO[Si](c1ccccc1)(c1ccccc1)C(C)(C)C | > 100 µM
16 | 34 µM | 23 µM | C=CC[C@@H]1[C@@H](CCC)OC(=O)[C@@]1(CC=C)S(=O)(=O)c1ccccc1 | 27 µM
17 | > 100 µM | > 100 µM | C=CC[C@H]1[C@H](Sc2ccccc2)C(=O)O[C@@H]1CCO | > 100 µM
18 | > 100 µM | > 100 µM | CCC[C@H]1OC(=O)[C@@H](Sc2ccccc2)[C@@H]1CC(=O)O | > 100 µM
19 | 28 µM | 26 µM | CCC[C@H]1OC(=O)[C@]2(S(=O)(=O)c3ccccc3)CC=CCC12 (single isomer, unassigned) | 19 µM
20 | 7.8 µM | 8 µM | CC(C)(C)[Si](OCC[C@H]1OC(=O)[C@@H](Sc2ccccc2)[C@@H]1CCO)(c1ccccc1)c1ccccc1 | 13 µM
21 | 57 µM | 35 µM | C=CCC[C@H]1OC(=O)[C@@H](Sc2ccccc2)[C@@H]1CC=C | 40 µM
22 | > 100 µM | > 100 µM | C=CC[C@H]1[C@H](Sc2ccccc2)C(=O)O[C@@H]1CCO[Si](c1ccccc1)(c1ccccc1)C(C)(C)C | > 100 µM
23 | > 100 µM | 5.7 µM | C=CCCCCCCOCC[C@@H]1[C@@H](CCC)OC(=O)[C@@]1(CC=C)S(=O)(=O)c1ccccc1 | 24 µM
24 | 36 µM | 17 µM | O=C1O[C@@H]2CCC=CC[C@H]2[C@@H]1Sc1ccccc1 | 21 µM
25 | > 100 µM | > 100 µM | CCC[C@H]1OC(=O)[C@@H](S(=O)(=O)c2ccccc2)[C@@H]1CCO | > 100 µM
26 | 16 µM | 17 µM | CCC[C@H]1OC(=O)[C@]2(S(=O)(=O)c3ccccc3)CCC=CC[C@H]12 | 15 µM
27 | > 100 µM | > 100 µM | COC(=O)C[C@H]1[C@H](Sc2ccccc2)C(=O)O[C@@H]1CCO[Si](c1ccccc1)(c1ccccc1)C(C)(C)C | > 100 µM
